Source: patent US12257287B2, “Glucagon-derived peptide and use thereof” (Tianjin Institute of Pharmaceutical Research Co., Ltd., priority 2018, dated 2025)
≈ marks a conversion by molar mass, not a printed value. Numbered stars: 1 amine (or outer) side, 2 acyl side, 3 side chain; on linkers, the order of the positions; unused ones are H or OH. Square brackets hold non-standard residues; d marks the D form. Side chains are listed from the residue outwards. Peptide text beside a SMILES is read from it. * marks the point of attachment. C18 diacid = O=C(O)CCCCCCCCCCCCCCCCC(=O)*; γGlu = O=C(O)[C@H](CCC(=O)[*:2])N[*:1]; AEEA = NCCOCCOCC(=O)O; Aib = CC(C)(N)C(=O)O

Tests used:
human GLP-1 receptor = biological target: T1, human GLP-1 receptor (Homo sapiens, UniProt P43220); experiment: GLP-1 receptor mediated cAMP production in vitro; format: cell-based; settings: cells transfected with human GLP-1 receptor, 20 min at 37° C., read-out: GLP-1R (nM EC50)
T1 construct: expressed in transfected cells; host or cells: Chinese guinea pig lung cells [sic]
T1 sequence (P43220 24-463): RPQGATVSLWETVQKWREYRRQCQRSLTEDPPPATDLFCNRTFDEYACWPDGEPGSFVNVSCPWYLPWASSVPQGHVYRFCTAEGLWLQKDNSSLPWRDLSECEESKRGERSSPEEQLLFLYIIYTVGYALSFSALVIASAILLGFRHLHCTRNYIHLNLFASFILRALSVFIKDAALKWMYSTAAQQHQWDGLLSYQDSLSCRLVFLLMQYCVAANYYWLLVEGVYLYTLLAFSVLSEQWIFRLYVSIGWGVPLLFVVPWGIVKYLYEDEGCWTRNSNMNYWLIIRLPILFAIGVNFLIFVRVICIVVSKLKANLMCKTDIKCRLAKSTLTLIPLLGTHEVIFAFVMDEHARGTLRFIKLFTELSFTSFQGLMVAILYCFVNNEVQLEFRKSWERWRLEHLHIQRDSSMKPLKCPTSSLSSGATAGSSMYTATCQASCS
Source text: (§1) The medium was removed, the cells were lysed, and cAMP values were detected referring to the detection method described for the assay kit.

GC receptor = biological target: T2, GC receptor (Homo sapiens, UniProt P47871); experiment: GC receptor mediated cAMP production in vitro (HEK293 cells transfected with GC receptor); format: cell-based; settings: 20 min at 37° C., read-out: GCGR (nM EC50)
T2 construct: expressed in transfected cells; host or cells: HEK293 cells
T2 sequence (P47871 26-477): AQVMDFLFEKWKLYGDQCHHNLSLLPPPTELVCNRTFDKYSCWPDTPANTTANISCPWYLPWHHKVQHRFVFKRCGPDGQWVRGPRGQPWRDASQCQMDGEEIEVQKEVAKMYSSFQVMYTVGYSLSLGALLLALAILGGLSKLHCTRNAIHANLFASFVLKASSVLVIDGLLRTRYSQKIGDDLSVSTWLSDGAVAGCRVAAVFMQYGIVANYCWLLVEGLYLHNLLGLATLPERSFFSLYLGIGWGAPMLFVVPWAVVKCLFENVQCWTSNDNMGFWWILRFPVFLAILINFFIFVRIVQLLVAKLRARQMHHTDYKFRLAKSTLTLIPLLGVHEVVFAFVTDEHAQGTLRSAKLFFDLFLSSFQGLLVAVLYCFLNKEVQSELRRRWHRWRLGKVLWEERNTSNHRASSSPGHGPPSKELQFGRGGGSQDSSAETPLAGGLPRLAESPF
Source text: as §1

[1] = Effect on body weight of DIO mice after 14 days' administration; format: in vivo, C57BL/6J mice; settings: DIO mice, 14 days, conclusions on Tables 3 and 5
Method in brief: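 C57BL/6J mice on H10060 high-fat diet for 34 weeks (DIO; 45.0–52.0 g), 5 per group, dosed subcutaneously once daily for 14 days; controls received saline. Body weight change (%) = (initial − last-day weight)/initial weight; positive values mean loss.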

[2] = Glucose tolerance test in glucose-loaded DIO mice; format: in vivo; settings: DIO mice, conclusions on Tables 4 and 6
Method in brief: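 DIO mice fasted 16 h received compound subcutaneously; 1 h later, glucose 1 g/kg was given intraperitoneally. Blood glucose measured at 0.5, 1 and 1.5 h; AUC compared with model control group to give blood glucose inhibition rate (%).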

[3] = Short-term administration: food intake and body weight in DIO mice; format: in vivo; settings: 30 nmol/kg once every 24 h, twice, − decrease
Method in brief: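 DIO mice (mean body weight 52.5 g), 5 per group, dosed at 30 nmol/kg every 24 h for two doses, in 10 mM PBS pH 7.4; controls received solvent. Food intake and body weight at 48 h expressed as change rate versus the day before dosing.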

physchem = format: physicochemical
Protocol: 2 mg of the compound was weighed, dissolved in 1 ml of phosphate buffer solutions with different concentrations (10, 20 mM) and different pH values (7.5, 8.0), and centrifuged, and supernatant was taken. The peak area was measured by HPLC (chromatographic column: Aeris widepore XB-C18 3.6 mm, 4.6×150 mm; mobile phase: A: 0.05% TFA, B: 95% acetonitrile; detection wavelength: 214 nm) and compared with a corresponding sample standard solution, and the relative concentration of the test sample solution is calculated.

[4] = Accelerated chemical stability in injection solvent system (HPLC-UV); format: physicochemical; settings: 14 days, phosphate buffer pH 7.3 with Tween 80 and phenol, main peak area vs day 0
Method in brief: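 Compound dissolved in 10 mM pH 8.5 sodium hydrogen phosphate buffer, adjusted to pH 7.3, with Tween 80 and phenol added. Solutions stored 14 days at 10 °C and 37 °C; HPLC-UV main-peak area by normalisation compared against day 0.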
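For solubility in this document: compound added at 2 mg per mL of phosphate buffer, with the dissolved amount determined in the supernatant.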

EC50 (human GLP-1 receptor): 0.051 nM
EC50 (GC receptor): 0.058 nM
solubility (physchem; pH 7.5, Solubility, pH 7.5, 10 mM phosphate buffer): 1490 µg/mL (≈ 334 µM)
solubility (physchem; pH 7.5, Solubility, pH 7.5, 20 mM phosphate buffer): 1420 µg/mL (≈ 318 µM)
solubility (physchem; pH 8, Solubility, pH 8.0, 10 mM phosphate buffer): > 2000 µg/mL
solubility (physchem; pH 8, Solubility, pH 8.0, 20 mM phosphate buffer): 1880 µg/mL (≈ 421 µM)
Change in purity % (10° C.) ([4]; 10° C.): −2.7%
Change in purity % (37° C.) ([4]; 37° C.): −5.1%
SMILES: CC[C@H](C)[C@H](NC(=O)[C@H](Cc1ccccc1)NC(=O)[C@H](CCC(=O)O)NC(=O)[C@H](CCCCNC(=O)COCCOCCNC(=O)COCCOCCNC(=O)CC[C@H](NC(=O)CCCCCCCCCCCCCCCCC(=O)O)C(=O)O)NC(=O)[C@H](C)NC(=O)[C@H](CCCCN)NC(=O)[C@H](CCCNC(=N)N)NC(=O)[C@H](CCC(=O)O)NC(=O)[C@H](CC(=O)O)NC(=O)[C@H](CC(C)C)NC(=O)[C@H](Cc1ccc(O)cc1)NC(=O)[C@H](CCCCN)NC(=O)[C@H](CO)NC(=O)[C@H](Cc1ccc(O)cc1)NC(=O)[C@H](CC(=O)O)NC(=O)[C@H](CO)NC(=O)[C@@H](NC(=O)[C@H](Cc1ccccc1)NC(=O)[C@@H](NC(=O)CNC(=O)[C@H](CCC(N)=O)NC(=O)C(C)(C)NC(=O)[C@@H](N)Cc1c[nH]cn1)[C@@H](C)O)[C@@H](C)O)C(=O)N[C@@H](CCC(=O)O)C(=O)N[C@@H](Cc1c[nH]c2ccccc12)C(=O)N[C@@H](CC(C)C)C(=O)N[C@@H](CCC(=O)O)C(=O)NCC(=O)NCC(=O)N1CCC[C@H]1C(=O)N[C@@H](CO)C(=O)N[C@@H](CO)C(=O)NCC(N)=O [Compound 66] (H-H[Aib]QGTFTSDYSKYLDERKAK([AEEA-AEEA-γGlu-C18 diacid])EFIEWLEGGPSSG-NH2; N-terminus assumed)
body weight reduction (in words) [1]: significantly reduced body weight
glucose tolerance / blood glucose lowering (in words) [2]: significantly improved glucose tolerance
Rate of change in food intake (%) ([3]; at 48 hours vs day before administration): −56%
Body weight change ([3]; at 48 hours): -1.7 g
